# Where a SMILES comes first, the peptide text is derived from it. [ ]: non-standard residue; d: D form. The star is where a group is joined. NHCH2CH2OH = OCCN*; For = O=C*
# How the values were obtained:
# [1] = tested on: P388 mouse leukemia cells; conditions: 92 h
# Procedure, shortened: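 First, library peptide stocks are diluted 250-fold in RPMI1640 with 10% heat-inactivated FBS. Next, they are mixed with P388 cells to give 1 × 10^4 cells/mL and incubated 92 h at 37 °C, 5% CO2. Finally, viability (%) is scored by WST-1 absorbance at 415 nm.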
# [2] = tested on: Streptococcus pyogenes SSI-9; experiment: Antibacterial activity assay of bead-derived peptides (three concentrations); format: cell-based; design: key: +++: inhibition by the 640-fold diluted peptide solution; ++: inhibition by the 160-fold diluted solution; +: inhibition by the 40-fold diluted solution; -: no inhibition; conditions: S. pyogenes, bead-derived peptide solution, three concentrations
# Procedure, shortened: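 Three stock dilutions per peptide (none, 4-fold, 16-fold in DMSO) are screened in 96-well format. The medium is blood-supplemented cation-adjusted MHB, inoculated with 2 × 10^5 CFU S. pyogenes SSI-9. Growth is read as cell precipitation at 18 h, 37 °C.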
# [3] = H+/Na+ transport assay of bead-derived peptides (one-point); format: biochemical; design: key: relative activity; mean of two control wells = 1.00; conditions: bead-derived peptide solution, EYPC/EYPG LUVs;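 further: relative to parent gramicidin A activity set to 1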
# Procedure, shortened: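 Values are normalized fluorescence, with Triton X-100 defining 100% and untreated LUVs 0%, and the two control wells averaging 1.00. Vesicles carried 1.0 mM pyranine and included egg yolk phosphatidylglycerol. Peptides were incubated with them 30 min at room temperature.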
smiles,measurement,setting,value
CC(C)C[C@@H](NC(=O)[C@H](C)NC(=O)CNC(=O)[C@@H](NC=O)C(C)C)C(=O)N[C@@H](C)C(=O)N[C@@H](C(=O)N[C@H](C(=O)N[C@H](CC(C)C)C(=O)N[C@@H](Cc1c[nH]c2ccccc12)C(=O)N[C@H](CC(C)C)C(=O)N[C@@H](Cc1c[nH]c2ccccc12)C(=O)N[C@@H](C(=O)N[C@@H](Cc1c[nH]c2ccccc12)C(=O)N[C@H](CC(C)C)C(=O)N[C@@H](Cc1c[nH]c2ccccc12)C(=O)NCCO)[C@H](C)O)C(C)C)C(C)C [compound 4128] (For-VGA[dL]A[dV]V[dL]W[dL]W[dT]W[dL]W-NHCH2CH2OH),cell viability/%,[1],100.0%
same,antibacterial activity,[2],+
same,H+/Na+ transport activity normalized against the value of 1 (1.00),[3],1.03
CC(C)C[C@@H](NC(=O)[C@H](Cc1c[nH]c2ccccc12)NC(=O)[C@H](NC(=O)[C@H](Cc1c[nH]c2ccccc12)NC(=O)[C@@H](CC(C)C)NC(=O)[C@@H](NC(=O)[C@H](NC(=O)[C@H](C)NC(=O)[C@H](NC(=O)[C@H](C)NC(=O)CNC(=O)[C@@H](NC=O)C(C)C)C(C)C)C(C)C)C(C)C)C(C)C)C(=O)N[C@@H](Cc1c[nH]c2ccccc12)C(=O)N[C@@H](C(=O)N[C@@H](Cc1c[nH]c2ccccc12)C(=O)NCCO)C(C)C [compound 2120] (For-VGA[dV]A[dV]V[dL]W[dV]W[dL]W[dV]W-NHCH2CH2OH),cell viability/%,[1],17.0%
same,antibacterial activity,[2],++
same,H+/Na+ transport activity normalized against the value of 1 (1.00),[3],1.24
CC(C)C[C@@H](NC(=O)[C@H](Cc1c[nH]c2ccccc12)NC(=O)[C@H](NC(=O)[C@H](Cc1c[nH]c2ccccc12)NC(=O)[C@H](NC(=O)[C@H](Cc1c[nH]c2ccccc12)NC(=O)[C@@H](CC(C)C)NC(=O)[C@@H](NC(=O)[C@H](NC(=O)[C@H](C)NC(=O)[C@H](NC(=O)[C@H](C)NC(=O)CNC(=O)[C@@H](NC=O)C(C)C)[C@H](C)O)C(C)C)C(C)C)C(C)C)C(C)C)C(=O)N[C@@H](Cc1c[nH]c2ccccc12)C(=O)NCCO [compound 10500] (For-VGA[dT]A[dV]V[dL]W[dV]W[dV]W[dL]W-NHCH2CH2OH),cell viability/%,[1],100.0%
same,antibacterial activity,[2],-
same,H+/Na+ transport activity normalized against the value of 1 (1.00),[3],1.14
CC(C)C[C@@H](NC(=O)[C@H](C)NC(=O)[C@H](NC(=O)[C@H](C)NC(=O)CNC(=O)[C@@H](NC=O)C(C)C)C(C)C)C(=O)N[C@H](C(=O)N[C@H](CC(C)C)C(=O)N[C@@H](Cc1c[nH]c2ccccc12)C(=O)N[C@@H](C(=O)N[C@@H](Cc1c[nH]c2ccccc12)C(=O)N[C@H](CC(C)C)C(=O)N[C@@H](Cc1c[nH]c2ccccc12)C(=O)N[C@@H](C(=O)N[C@@H](Cc1c[nH]c2ccccc12)C(=O)NCCO)C(C)C)[C@H](C)O)C(C)C [compound 4232] (For-VGA[dV]A[dL]V[dL]W[dT]W[dL]W[dV]W-NHCH2CH2OH),cell viability/%,[1],93.0%
same,antibacterial activity,[2],-
same,H+/Na+ transport activity normalized against the value of 1 (1.00),[3],1.05
CC(C)C[C@@H](NC(=O)[C@H](C)NC(=O)CNC(=O)[C@@H](NC=O)C(C)C)C(=O)N[C@@H](C)C(=O)N[C@@H](C(=O)N[C@H](C(=O)N[C@@H](C(=O)N[C@@H](Cc1c[nH]c2ccccc12)C(=O)N[C@@H](C(=O)N[C@@H](Cc1c[nH]c2ccccc12)C(=O)N[C@H](CC(C)C)C(=O)N[C@@H](Cc1c[nH]c2ccccc12)C(=O)N[C@@H](C(=O)N[C@@H](Cc1c[nH]c2ccccc12)C(=O)NCCO)C(C)C)C(C)C)[C@H](C)O)C(C)C)C(C)C [compound 4357] (For-VGA[dL]A[dV]V[dT]W[dV]W[dL]W[dV]W-NHCH2CH2OH),cell viability/%,[1],100.0%
same,antibacterial activity,[2],-
same,H+/Na+ transport activity normalized against the value of 1 (1.00),[3],1.01
CC(C)C[C@@H](NC(=O)[C@H](Cc1c[nH]c2ccccc12)NC(=O)[C@H](NC(=O)[C@H](Cc1c[nH]c2ccccc12)NC(=O)[C@H](NC(=O)[C@H](Cc1c[nH]c2ccccc12)NC(=O)[C@@H](CC(C)C)NC(=O)[C@@H](NC(=O)[C@H](NC(=O)[C@H](C)NC(=O)[C@H](NC(=O)[C@H](C)NC(=O)CNC(=O)[C@@H](NC=O)C(C)C)C(C)C)C(C)C)C(C)C)C(C)C)C(C)C)C(=O)N[C@@H](Cc1c[nH]c2ccccc12)C(=O)NCCO [compound 12721] (For-VGA[dV]A[dV]V[dL]W[dV]W[dV]W[dL]W-NHCH2CH2OH),cell viability/%,[1],51.7%
same,antibacterial activity,[2],+
same,H+/Na+ transport activity normalized against the value of 1 (1.00),[3],1.04
CC(C)C[C@@H](NC(=O)[C@H](C)NC(=O)[C@H](NC(=O)[C@H](C)NC(=O)CNC(=O)[C@@H](NC=O)C(C)C)[C@H](C)O)C(=O)N[C@H](C(=O)N[C@H](CC(C)C)C(=O)N[C@@H](Cc1c[nH]c2ccccc12)C(=O)N[C@@H](C(=O)N[C@@H](Cc1c[nH]c2ccccc12)C(=O)N[C@H](CC(C)C)C(=O)N[C@@H](Cc1c[nH]c2ccccc12)C(=O)N[C@@H](C(=O)N[C@@H](Cc1c[nH]c2ccccc12)C(=O)NCCO)C(C)C)[C@H](C)O)C(C)C [compound 367] (For-VGA[dT]A[dL]V[dL]W[dT]W[dL]W[dV]W-NHCH2CH2OH),cell viability/%,[1],100.0%
same,antibacterial activity,[2],-
same,H+/Na+ transport activity normalized against the value of 1 (1.00),[3],1.24
CC(C)C[C@@H](NC(=O)[C@H](C)NC(=O)CNC(=O)[C@@H](NC=O)C(C)C)C(=O)N[C@@H](C)C(=O)N[C@@H](C(=O)N[C@H](C(=O)N[C@@H](C(=O)N[C@@H](Cc1c[nH]c2ccccc12)C(=O)N[C@@H](C(=O)N[C@@H](Cc1c[nH]c2ccccc12)C(=O)N[C@H](CC(C)C)C(=O)N[C@@H](Cc1c[nH]c2ccccc12)C(=O)N[C@H](CC(C)C)C(=O)N[C@@H](Cc1c[nH]c2ccccc12)C(=O)NCCO)C(C)C)[C@H](C)O)C(C)C)C(C)C [compound 5482] (For-VGA[dL]A[dV]V[dT]W[dV]W[dL]W[dL]W-NHCH2CH2OH),cell viability/%,[1],100.0%
same,antibacterial activity,[2],-
same,H+/Na+ transport activity normalized against the value of 1 (1.00),[3],1.25
CC(C)C[C@@H](NC(=O)[C@H](C)NC(=O)[C@H](NC(=O)[C@H](C)NC(=O)CNC(=O)[C@@H](NC=O)C(C)C)C(C)C)C(=O)N[C@H](C(=O)N[C@@H](C(=O)N[C@@H](Cc1c[nH]c2ccccc12)C(=O)N[C@H](CC(C)C)C(=O)N[C@@H](Cc1c[nH]c2ccccc12)C(=O)N[C@@H](C(=O)N[C@@H](Cc1c[nH]c2ccccc12)C(=O)N[C@H](CC(C)C)C(=O)N[C@@H](Cc1c[nH]c2ccccc12)C(=O)NCCO)C(C)C)C(C)C)C(C)C [compound 660] (For-VGA[dV]A[dL]V[dV]W[dL]W[dV]W[dL]W-NHCH2CH2OH),cell viability/%,[1],15.6%
same,antibacterial activity,[2],++
same,H+/Na+ transport activity normalized against the value of 1 (1.00),[3],1.06
CC(C)C[C@@H](NC(=O)[C@H](C)NC(=O)[C@H](NC(=O)[C@H](C)NC(=O)CNC(=O)[C@@H](NC=O)C(C)C)C(C)C)C(=O)N[C@H](C(=O)N[C@@H](C(=O)N[C@@H](Cc1c[nH]c2ccccc12)C(=O)N[C@@H](C(=O)N[C@@H](Cc1c[nH]c2ccccc12)C(=O)N[C@@H](C(=O)N[C@@H](Cc1c[nH]c2ccccc12)C(=O)N[C@@H](C(=O)N[C@@H](Cc1c[nH]c2ccccc12)C(=O)NCCO)C(C)C)C(C)C)C(C)C)C(C)C)C(C)C [compound 13030] (For-VGA[dV]A[dL]V[dV]W[dV]W[dV]W[dV]W-NHCH2CH2OH),cell viability/%,[1],99.9%
same,antibacterial activity,[2],+
same,H+/Na+ transport activity normalized against the value of 1 (1.00),[3],1.42
CNC(=O)C[C@@H](NC(=O)[C@@H](NC(=O)[C@@H](CC(C)C)NC(=O)[C@H](C)NC(=O)[C@@H](CC(C)C)NC(=O)[C@H](C)NC(=O)CNC(=O)[C@@H](NC=O)C(C)C)C(C)C)C(=O)N[C@@H](Cc1c[nH]c2ccccc12)C(=O)N[C@H](CC(C)C)C(=O)N[C@@H](Cc1c[nH]c2ccccc12)C(=O)N[C@H](CC(C)C)C(=O)N[C@@H](Cc1c[nH]c2ccccc12)C(=O)N[C@@H](C(=O)N[C@@H](Cc1c[nH]c2ccccc12)C(=O)NCCO)[C@H](C)O [compound 3929] (For-VGA[dL]A[dL]V[dD](NHMe)W[dL]W[dL]W[dT]W-NHCH2CH2OH),cell viability/%,[1],100.0%
same,antibacterial activity,[2],-
same,H+/Na+ transport activity normalized against the value of 1 (1.00),[3],1.14
CC(C)C[C@@H](NC(=O)[C@H](C)NC(=O)CNC(=O)[C@@H](NC=O)C(C)C)C(=O)N[C@@H](C)C(=O)N[C@@H](C(=O)N[C@H](C(=O)N[C@H](CC(C)C)C(=O)N[C@@H](Cc1c[nH]c2ccccc12)C(=O)N[C@H](CC(C)C)C(=O)N[C@@H](Cc1c[nH]c2ccccc12)C(=O)N[C@@H](C(=O)N[C@@H](Cc1c[nH]c2ccccc12)C(=O)N[C@H](CC(C)C)C(=O)N[C@@H](Cc1c[nH]c2ccccc12)C(=O)NCCO)C(C)C)C(C)C)[C@H](C)O [compound 9676] (For-VGA[dL]A[dT]V[dL]W[dL]W[dV]W[dL]W-NHCH2CH2OH),cell viability/%,[1],100.0%
same,antibacterial activity,[2],-
same,H+/Na+ transport activity normalized against the value of 1 (1.00),[3],1.05
CNC(=O)C[C@@H](NC(=O)[C@H](Cc1c[nH]c2ccccc12)NC(=O)[C@H](NC(=O)[C@@H](NC(=O)[C@@H](CC(C)C)NC(=O)[C@H](C)NC(=O)[C@@H](CC(C)C)NC(=O)[C@H](C)NC(=O)CNC(=O)[C@@H](NC=O)C(C)C)C(C)C)C(C)C)C(=O)N[C@@H](Cc1c[nH]c2ccccc12)C(=O)N[C@H](CC(C)C)C(=O)N[C@@H](Cc1c[nH]c2ccccc12)C(=O)N[C@@H](C(=O)N[C@@H](Cc1c[nH]c2ccccc12)C(=O)NCCO)C(C)C [compound 5091] (For-VGA[dL]A[dL]V[dV]W[dD](NHMe)W[dL]W[dV]W-NHCH2CH2OH),cell viability/%,[1],100.0%
same,antibacterial activity,[2],+
same,H+/Na+ transport activity normalized against the value of 1 (1.00),[3],1.05
